According to patent publication US20050137220A1 (Pharmacia Corporation, priority 2003, published 2005):
Structures can show the parent of a compound that is named as a salt.

Each compound was assayed against MK-2 (Homo sapiens, UniProt P49137) (assay: Determination of MK-2 IC50 (phosphorylation of HSP-peptide, anion exchange resin capture assay)). Settings: additional values are replicate IC50 experiments; mixture of stereoisomers implied unless otherwise noted; read-out: MK-2 Avg. IC50.
Format: biochemical

Chain of MK-2 (P49137 whole entry, species assumed): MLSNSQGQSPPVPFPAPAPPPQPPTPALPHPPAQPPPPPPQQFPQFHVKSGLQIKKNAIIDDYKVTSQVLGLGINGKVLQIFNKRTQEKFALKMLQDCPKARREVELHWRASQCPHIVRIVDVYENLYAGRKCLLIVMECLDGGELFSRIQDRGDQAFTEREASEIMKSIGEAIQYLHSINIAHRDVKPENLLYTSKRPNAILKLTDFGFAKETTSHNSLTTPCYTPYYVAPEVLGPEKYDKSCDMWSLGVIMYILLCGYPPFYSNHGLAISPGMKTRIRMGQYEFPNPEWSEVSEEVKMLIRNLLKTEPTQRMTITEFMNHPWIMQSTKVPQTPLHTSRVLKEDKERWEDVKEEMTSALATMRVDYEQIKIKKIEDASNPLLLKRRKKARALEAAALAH

**Q.** Which IC50 does the source give for `COC(=O)C1c2[nH]c3ccc(OC)cc3c2CCN1C(=O)C(F)(F)F` (stereo not drawn) [Example 207, methyl 6-methoxy-2-(trifluoroacetyl)-2,3,4,9-tetrahydro-1H-beta-carboline-1-carboxylate] here?
**A.** > 200 µM

**Q.** Which IC50 does the source give for `COc1ccc2[nH]c3c(c2c1)C(c1ccccc1)CNC3C(=O)O` (stereo not drawn) [Example 210, 6-methoxy-4-phenyl-2,3,4,9-tetrahydro-1H-beta-carboline-1-carboxylic acid hydrochloride] here?
**A.** > 200 µM

**Q.** For `CCOC(=O)C1c2[nH]c3ccccc3c2CCN1C(=O)c1ccc(OC)o1` (stereo not drawn) [Example 211, 1h-Pyrido[3,4-B]Indole-1-Carboxylic Acid, 2,3,4,9-Tetrahydro-2-[(5-Methoxy-2-Furanyl)Carbonyl]-,Ethyl Ester], which IC50 is on record?
**A.** > 200 µM

**Q.** `COC(=O)C1(C)NCCc2c1[nH]c1ccccc21` (stereo not drawn) [Example 212, 1h-Pyrido[3,4-B]Indole-1-Carboxylic Acid, 2,3,4,9-Tetrahydro-1-Methyl-,Methyl Ester] was tested. Which IC50 did it give?
**A.** > 200 µM

**Q.** How did the IC50 turn out when `COC(=O)CC1CC2(C(=O)OC)c3[nH]c4ccccc4c3CCN2C1=O` (stereo not drawn) [Example 213, 1h-Indolizino[8,7-B]Indole-2-Acetic Acid, 2,3,5,6,11,11b-(Methoxycarbonyl)-3-Oxo-, Methyl Ester] was run?
**A.** > 200 µM

**Q.** With `O=C(O)C1NCCc2c1[nH]c1cc(F)ccc21` (stereo not drawn) [Example 214, 7-fluoro-2,3,4,9-tetrahydro-1H-beta-carboline-1-carboxylic acid hydrochloride] as the compound, how does the IC50 read?
**A.** > 200 µM

**Q.** For `Cc1cccc2c3c([nH]c12)C(C(=O)O)NCC3` (stereo not drawn) [Example 215, 8-methyl-2,3,4,9-tetrahydro-1H-beta-carboline-1-carboxylic acid hydrochloride], which IC50 is on record?
**A.** > 200 µM

**Q.** How did the IC50 turn out when `Cc1ccc2[nH]c3c(c2c1)CCNC3C(=O)O` (stereo not drawn) [Example 216, 6-methyl-2,3,4,9-tetrahydro-1H-beta-carboline-1-carboxylic acid hydrochloride] was run?
**A.** > 200 µM

**Q.** `COc1ccc2c3c([nH]c2c1)C(C(=O)O)NCC3` (stereo not drawn) [Example 217, 7-methoxy-2,3,4,9-tetrahydro-1H-beta-carboline-1-carboxylic acid hydrochloride] was tested. Which IC50 did it give?
**A.** > 200 µM

**Q.** Which IC50 does the source give for `COc1ccc2[nH]c3c(c2c1)CCN(C(=O)OCc1ccccc1)C3C(=O)NCC(=O)OCc1ccccc1` (stereo not drawn) [Example 218, 2-[(benzyloxy)carbonyl]-6-methoxy-N-[2-(benzyloxy)-2-oxo]ethyl-2,3,4,9-tetrahydro-1H-beta-carboline-1-carboxamide] here?
**A.** > 200 µM

**Q.** How did the IC50 turn out when `COc1ccc2[nH]c3c(c2c1)CCN(C(=O)OCc1ccccc1)C3C(=O)O` (stereo not drawn) [Example 219, 2-[(benzyloxy)carbonyl]-6-methoxy-2,3,4,9-tetrahydro-1H-beta-carboline-1-carboxylic acid] was run?
**A.** > 200 µM

**Q.** How did the IC50 turn out when `COc1ccc2[nH]c3c(c2c1)CCNC3C(N)=O` (stereo not drawn) [Example 220, 6-methoxy-2,3,4,9-tetrahydro-1H-beta-carboline-1-carboxamide] was run?
**A.** > 200 µM

**Q.** `COc1ccc2[nH]c3c(c2c1)CCNC3CO` (stereo not drawn) [Example 221, (6-methoxy-2,3,4,9-tetrahydro-1H-beta-carbolin-1-yl)methanol] was tested. Which IC50 did it give?
**A.** > 200 µM

**Q.** With `COc1ccc2[nH]c3c(c2c1)C(Cc1ccco1)CNC3C(=O)O` (stereo not drawn) [Example 222, 4-(2-furylmethyl)-6-methoxy-2,3,4,9-tetrahydro-1H-beta-carboline-1-carboxylic acid trifluoroacetate] as the compound, how does the IC50 read?
**A.** > 200 µM

**Q.** With `COc1cccc2c3c([nH]c12)C(C(=O)O)NCC3` (stereo not drawn) [Example 223, 8-methoxy-2,3,4,9-tetrahydro-1H-beta-carboline-1-carboxylic acid trifluoroacetate hydrate] as the compound, how does the IC50 read?
**A.** > 200 µM

**Q.** For `COc1ccc2[nH]c3c(c2c1)CCNC3C(F)(F)F` (stereo not drawn) [Example 224, 6-methoxy-1-(trifluoromethyl)-2,3,4,9-tetrahydro-1H-beta-carboline], which IC50 is on record?
**A.** > 200 µM

**Q.** How did the IC50 turn out when `C=CCN1CCc2c([nH]c3ccc(OC)cc23)C1C(=O)OC` (stereo not drawn) [Example 225, methyl 2-allyl-6-methoxy-2,3,4,9-tetrahydro-1H-beta-carboline-1-carboxylate] was run?
**A.** > 200 µM

**Q.** `COc1ccc2[nH]c3c(c2c1)CCNC3(CC(=O)O)C(=O)O` (stereo not drawn) [Example 226, 1-(carboxymethyl)-6-methoxy-2,3,4,9-tetrahydro-1H-beta-carboline-1-carboxylic acid] was tested. Which IC50 did it give?
**A.** > 200 µM

**Q.** `COC(=O)C1Cc2c([nH]c3ccccc23)C(C(=O)O)N1` (stereo not drawn) [Example 227, 3-(methoxycarbonyl)-2,3,4,9-tetrahydro-1H-beta-carboline-1-carboxylic acid] was tested. Which IC50 did it give?
**A.** > 200 µM

**Q.** How did the IC50 turn out when `COc1ccc2[nH]c3c(c2c1)CCNC3C(=O)NCC(=O)O` (stereo not drawn) [Example 229, N-[(6-methoxy-2,3,4,9-tetrahydro-1H-beta-carbolin-1-yl)carbonyl]glycine hydrochloride hydrate] was run?
**A.** > 200 µM

**Q.** `COc1ccc2[nH]c3c(c2c1)CCNC3CN` (stereo not drawn) [Example 230, 1-(6-methoxy-2,3,4,9-tetrahydro-1H-beta-carbolin-1-yl)methanamine trifluoroacetate hydrate] was tested. Which IC50 did it give?
**A.** > 200 µM

**Q.** For `COc1ccc2[nH]c3c(c2c1)CCNC3CC#N` (stereo not drawn) [Example 231, (6-methoxy-2,3,4,9-tetrahydro-1H-beta-carbolin-1-yl)acetonitrile], which IC50 is on record?
**A.** > 200 µM

**Q.** `COC(=O)C1c2[nH]c3ccc(OC)cc3c2CCN1C(C)=O` (stereo not drawn) [Example 232, methyl 2-acetyl-6-methoxy-2,3,4,9-tetrahydro-1H-beta-carboline-1-carboxylate] was tested. Which IC50 did it give?
**A.** > 200 µM

**Q.** `COc1ccc2[nH]c3c(c2c1)C(c1ccccc1)CNC3C(=O)O` (stereo not drawn) [Example 233, 6-methoxy-4-phenyl-2,3,4,9-tetrahydro-1H-beta-carboline-1-carboxylic acid] was tested. Which IC50 did it give?
**A.** > 200 µM

**Q.** Which IC50 does the source give for `COC(=O)C1c2[nH]c3ccc(OC)cc3c2CCN1C(=O)OC(C)(C)C` (stereo not drawn) [Example 234, 2-tert-butyl 1-methyl 6-methoxy-1,3,4,9-tetrahydro-2H-beta-carboline-1,2-dicarboxylate] here?
**A.** > 200 µM

**Q.** With `COC(=O)C1(C)NCCc2c1[nH]c1ccccc21` (stereo not drawn) [Example 235, methyl 1-methyl-2,3,4,9-tetrahydro-1H-beta-carboline-1-carboxylate] as the compound, how does the IC50 read?
**A.** > 200 µM

**Q.** `COc1ccc2[nH]c3c(c2c1)CCN1COC(=O)C31` (stereo not drawn) [Example 236, 8-methoxy-5,6,11,11b-tetrahydro-1H-[1,3]oxazolo[3′,4′:1,2]pyrido[3,4-b]indol-1-one] was tested. Which IC50 did it give?
**A.** > 200 µM

**Q.** How did the IC50 turn out when `COc1ccc2[nH]c3c(c2c1)CCNC3(C)C(=O)O` (stereo not drawn) [Example 237, 6-methoxy-1-methyl-2,3,4,9-tetrahydro-1H-beta-carboline-1-carboxylic acid hydrochloride] was run?
**A.** > 200 µM

**Q.** With `COC(=O)c1cccc2[nH]c3c(c12)CCNC3C(=O)O` (stereo not drawn) [Example 238, 5-(methoxycarbonyl)-2,3,4,9-tetrahydro-1H-beta-carbolin-1-carboxylic acid hydrate] as the compound, how does the IC50 read?
**A.** > 200 µM

**Q.** With `COc1ccc2[nH]c3c(c2c1)CCNC3[C@H](O)CO` (stereo partly drawn) [Example 239, (1S)-1-(6-methoxy-2,3,4,9-tetrahydro-1H-beta-carbolin-1-yl)ethane-1,2-diol trifluoroacetate] as the compound, how does the IC50 read?
**A.** > 200 µM

**Q.** For `COc1ccc2[nH]c3c(c2c1)CCNC3(Cc1ccccc1)C(=O)O` (stereo not drawn) [Example 241, 1-benzyl-6-methoxy-2,3,4,9-tetrahydro-1H-beta-carboline-1-carboxylic acid hydrochloride], which IC50 is on record?
**A.** > 200 µM

**Q.** For `O=C1NCCc2c1[nH]c1ccc(C#Cc3ccccc3)cc21` [Example 248, 6-(phenylethynyl)-2,3,4,9-tetrahydro-1H-beta-carbolin-1-one], which IC50 is on record?
**A.** > 200 µM

**Q.** For `O=C1NCCc2c1[nH]c1cccc(C(=O)O)c21` [Example 250, 1-oxo-2,3,4,9-tetrahydro-1H-beta-carboline-5-carboxylic acid], which IC50 is on record?
**A.** > 200 µM

**Q.** How did the IC50 turn out when `O=C1NCCc2c1[nH]c1cccc(C(=O)N3CCOCC3)c21` [Example 251, 5-(morphoiln-4-ylcarbonyl)-2,3,4,9-tetrahydro-1H-beta-carbolin-1-one] was run?
**A.** > 200 µM

**Q.** With `O=C1NCCc2c1[nH]c1c(Cl)ccc(Cl)c21` [Example 252, 5,8-dichloro-2,3,4,9-tetrahydro-1H-beta-carbolin-1-one] as the compound, how does the IC50 read?
**A.** > 200 µM

**Q.** With `O=C1NCCc2c1[nH]c1ccc([N+](=O)[O-])cc21` [Example 253, 6-nitro-2,3,4,9-tetrahydro-1H-beta-carbolin-1-one] as the compound, how does the IC50 read?
**A.** > 200 µM

**Q.** With `Cc1ccc2[nH]c3c(c2c1)CCNC3=O` [Example 254, 1h-Pyrido[3,4-B]Indol-1-One,2,3,4,9-Tetrahydro-6-Methyl-] as the compound, how does the IC50 read?
**A.** > 200 µM

**Q.** How did the IC50 turn out when `CCOc1cc([N+](=O)[O-])c2[nH]c3c(c2c1)CCNC3=O` [Example 255, 6-ethoxy-8-nitro-2,3,4,9-tetrahydro-1H-beta-carbolin-1-one] was run?
**A.** > 200 µM

**Q.** Which IC50 does the source give for `O=C1NCCc2c1[nH]c1c(Br)cc3c(c21)OCCO3` [Example 256, 6-bromo-2,3,7,9,10,11-hexahydro-8H-[1,4]dioxino[2,3-e]pyrido[3,4-b]indol-8-one] here?
**A.** > 200 µM

**Q.** With `CN1CCc2c(n(-c3ccccc3)c3ccccc23)C1=O` [Example 257, 2-methyl-9-phenyl-2,3,4,9-tetrahydro-1H-beta-carbolin-1-one] as the compound, how does the IC50 read?
**A.** > 200 µM

**Q.** How did the IC50 turn out when `Cc1cccc2c3c([nH]c12)C(=O)NCC3` [Example 258, 1H-Pyrido[3,4-b]indol-1-one,2,3,4,9-tetrahydro-8-methyl- or 8-methyl-2,3,4,9-tetrahydro-1H-beta-carbolin-1-one] was run?
**A.** > 200 µM

**Q.** How did the IC50 turn out when `COc1ccc([N+](=O)[O-])c2c3c(n(C)c12)C(=O)NCC3` [Example 259, 8-methoxy-9-methyl-5-nitro-2,3,4,9-tetrahydro-1H-beta-carbolin-1-one] was run?
**A.** > 200 µM

**Q.** Which IC50 does the source give for `O=C1NCCc2c1[nH]c1ccccc21` [Example 260, 1H-Pyrido[3,4-b]indol-1-one,2,3,4,9-tetrahydro- or 2,3,4,9-tetrahydro-1H-beta-carbolin-1-one] here?
**A.** > 200 µM

**Q.** With `O=C1NCCc2c1[nH]c1ccc(F)cc21` [Example 261, 1H-Pyrido[3,4-b]indol-1-one,6-fluoro-2,3,4,9-tetrahydro- or 6-fluoro-2,3,4,9-tetrahydro-1H-beta-carbolin-1-one or 1h-Pyrido[3,4-B]Indol-1-One,6-Fluoro-2,3,4,9-Tetrahydro-] as the compound, how does the IC50 read?
**A.** > 200 µM

**Q.** Which IC50 does the source give for `O=C1NCCc2c1[nH]c1c(Cl)cccc21` [Example 262, 1H-Pyrido[3,4-b]indol-1-one,8-chloro-2,3,4,9-tetrahydro- or 8-chloro-2,3,4,9-tetrahydro-1H-beta-carbolin-1-one] here?
**A.** > 200 µM
